Experimental findings from patent US20240391954A1, “MC4R AGONIST PEPTIDES” (The Regents of the University of Michigan, priority 2021, published 2024) are described below.

Common to all, as to assay type: cell-based
In one assay the target is T1, human MC3R (Homo sapiens, UniProt P41968).
T1 construct: expressed in transfected cells; host or cells: HEK-293 cells stably expressing the GScAMP22F split-luciferase cAMP sensor (parent reporter line from Promega); MC3R clone generated in-house, G418 selection
Description: split-luciferase cAMP sensor assay, agonist mode (measurement window 1), hMC3R. Conditions: for Emax: % maximal activation, read-out: MC3R cAMP % max activation; for Emax / EC50: agonist mode; for MC4R selectivity vs MC3R: MC4R versus MC3R; for EC50: HEK-293 cells stably expressing hMC3R, read-out: MC3R cAMP EC50. Summed up: (§1)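 Live stable cell lines carrying receptor plus GloSensor cAMP22f split-luciferase, loaded with 4% D-luciferin in serum-free medium (~1% serum estimated during assay). Luminescence recorded during in-line peptide addition; direct agonist effect read in window 1, with 20 μM forskolin as normalization reference. EC50 from four-parameter sigmoid fit.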

A further assay concerns the target T2, human MC4R (Homo sapiens, UniProt P32245).
T2 construct: host or cells: HEK-293 cells stably expressing the GScAMP22F split-luciferase cAMP sensor and hMC4R, G418 selection
Description: split-luciferase cAMP sensor assay, agonist mode (measurement window 1), hMC4R. As to conditions: agonist mode; for Emax: % maximal activation, read-out: MC4R cAMP % max activation; for EC50: HEK-293 cells stably expressing hMC4R, read-out: MC4R cAMP EC50. Put shortly:
as §1

A further assay has as its target T3, human MC1R (Homo sapiens, UniProt Q01726).
T3 construct: expressed in transfected cells; host or cells: HEK-293 cells stably expressing hMC1R and the GScAMP22F cAMP sensor
The assay can be described thus: split-luciferase cAMP sensor assay, agonist mode, hMC1R. Conditions: MC4R versus MC1R. As for the experimental part: FIG. 4A-B. (A) Pharmacological properties of exemplary MC4R agonist peptides, including those with improved efficacy in the MC4R+/− mouse (CTX-1211, CTX-1227, and CTX-1228). Concentration-response agonist curves for peptides indicated at the human MC4R (red), human MC3R (blue), human MC5R (green), and human MC1R (black) were determined by a split-luciferase cAMP sensor dynamic assay in HEK-293 cells stably expressing the hMC1R, hMC3R, hMC4R, or hMC5R and the GScAMP22F cAMP sensor. Each data point represents the mean±SEM of two experiments with three replicates each per experiment. Data is normalized to the ECmax of α-MSH. (B) Same as above, for peptides representing reduced activity at the hMC1R. Inset tables indicate EC50 values for the ligand indicated for each receptor.
The assay for the determination of the cAMP response in live cells was described previously. (Yu et al., 2020, Science 368, 428-433; incorporated by reference in its entirety). Cells were seeded at a density of 20,000 cells per well using 384-well poly-D lysine-coated, clear bottom, and black-wall assay plates (Corning Inc. Corning, NJ). Cells were allowed to attach to the plates for 18 to 24 h after which growth media was removed and 20 μl of 4% D-luciferin (Promega) in CO2 independent, serum-free medium (Thermo Fisher Scientific) was added to each well. The luciferase substrate was allowed to permeate the cells for 120 min at 37° C. Intracellular cAMP levels were measured using an FDSS 7000EX Functional Drug Screening System (Hamamatsu Photonics, Hamamatsu, Japan) in the Center for Chemical Genomics at the Life Sciences Institute. This instrument allowed the in-line addition of test-peptides and receptor agonists while simultaneously acquiring the luminescence signal from live cells. Assay read steps were set as follows: baseline acquisition of 2 min, the addition of 10 μl of varying 3× concentrations of test-peptides or vehicle followed by 11 min measurement (measurement window 1), and 10 μl addition of 4× concentration of the endogenous melanocortin agonist α-MSH (Bachem, Bubendorf, Switzerland) followed by an additional 11 min response measurement (measurement window 2). The resulting final concentration of α-MSH was close to the respective receptor EC90 dose for each receptor. Intraplate concentration response curves for α-MSH and SHU-9119 (Phoenix Pharmaceuticals, Burlingame CA) were included as reference controls. A submaximal forskolin (20 μM) concentration was also included to serve as a normalization reference to account for cell number variations and differences in assay transducer efficiency between cell lines.
With this set up it was possible to evaluate the direct effect of the test-peptides on the MC3R and MC4R cell lines during measurement window 1, while the antagonist profile in the presence of EC90 α-MSH was determined on measurement window 2. For data analysis baseline luminescence (i.e. the maximum luminescence signal from the initial 0 to 2 min window) was subtracted from the maximum luminescence obtained during measurement window 1 (2 to 13 min) and measurement window 2 (13 to 24 min) to yield the test-peptide elicited responses. EC50 or IC50 potency values were determined by non-linear regression by fitting the data to a sigmoid four-parameter variable slope model using the GraphPad Prism version 8.4 software package (San Diego CA).

Positions of bridges follow the written chain, without caps; N, C: chain ends. Non-standard residues stand in square brackets, D forms with d. Residues, ends and D or L forms follow the SMILES beside them. d(αMeF) = C[C@@](N)(Cc1ccccc1)C(=O)O; 2Pal = N[C@@H](Cc1ccccn1)C(=O)O; Cit = NC(=O)NCCC[C@H](N)C(=O)O; Nle = CCCC[C@H](N)C(=O)O; Orn = NCCC[C@H](N)C(=O)O; Aib = CC(C)(N)C(=O)O Bounds are passed on as bounds.

T1 sequence (P41968 whole entry): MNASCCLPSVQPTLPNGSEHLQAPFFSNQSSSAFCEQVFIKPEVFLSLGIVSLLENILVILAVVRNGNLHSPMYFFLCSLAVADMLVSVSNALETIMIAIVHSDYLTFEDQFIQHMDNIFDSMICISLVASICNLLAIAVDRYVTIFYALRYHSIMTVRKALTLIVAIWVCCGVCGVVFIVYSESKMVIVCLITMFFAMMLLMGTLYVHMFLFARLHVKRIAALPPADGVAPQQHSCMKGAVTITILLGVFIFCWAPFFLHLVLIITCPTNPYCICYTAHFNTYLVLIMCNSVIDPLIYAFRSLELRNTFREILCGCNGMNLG
T3 sequence (Q01726 whole entry): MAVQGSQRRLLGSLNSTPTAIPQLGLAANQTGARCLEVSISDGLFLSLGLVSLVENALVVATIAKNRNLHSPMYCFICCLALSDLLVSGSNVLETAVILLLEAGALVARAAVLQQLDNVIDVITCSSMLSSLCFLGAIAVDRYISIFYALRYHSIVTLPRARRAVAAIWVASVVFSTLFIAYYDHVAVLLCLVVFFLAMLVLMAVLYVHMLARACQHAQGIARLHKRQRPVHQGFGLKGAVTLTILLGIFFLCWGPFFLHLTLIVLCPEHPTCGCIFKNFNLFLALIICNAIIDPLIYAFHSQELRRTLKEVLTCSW
T2 sequence (P32245 whole entry): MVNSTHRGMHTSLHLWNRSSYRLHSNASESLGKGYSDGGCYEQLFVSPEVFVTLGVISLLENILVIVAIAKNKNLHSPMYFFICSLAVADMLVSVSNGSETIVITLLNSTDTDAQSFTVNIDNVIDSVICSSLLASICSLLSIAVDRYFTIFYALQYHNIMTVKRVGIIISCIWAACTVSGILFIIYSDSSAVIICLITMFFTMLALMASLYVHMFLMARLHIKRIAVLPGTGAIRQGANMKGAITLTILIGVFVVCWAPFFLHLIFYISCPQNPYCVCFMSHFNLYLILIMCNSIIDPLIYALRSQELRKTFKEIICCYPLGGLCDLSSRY

On to `CC(=O)N[C@H]1CSSC[C@@H](C(N)=O)NC(=O)[C@H](Cc2ccccc2)NC(=O)[C@H](CCCNC(=N)N)NC(=O)[C@@H](Cc2ccccc2)NC(=O)[C@H](CCCNC(=N)N)NC(=O)C(C)(C)NC1=O` [CTX-1635, cyclo(Cys-Aib-Arg-D-Phe-Arg-Phe-Cys)] (Ac-C[Aib]R[dF]RFC-NH2; disulfide 1-7 (inferred)), for which, on human MC3R, the Emax is 70% and the “MC4R selectivity vs MC3R” value is 5.7. Also, the Emax on human MC4R is 112%. Moreover, on human MC1R, the “MC4R selectivity vs MC1R” value was found to be 1.19.
The matching figures for `CC(=O)N[C@H]1CSSC[C@@H](C(N)=O)NC(=O)[C@H](Cc2c[nH]c3ccccc23)NC(=O)[C@H](CCCNC(=N)N)NC(=O)[C@@H](Cc2ccccc2)NC(=O)[C@H](CCCNC(N)=O)NC(=O)C(C)(C)NC1=O` [CTX-1633, cyclo(Cys-Aib-Cit-D-Phe-Arg-Trp-Cys)] (Ac-C[Aib][Cit][dF]RWC-NH2; disulfide 1-7 (inferred)): 45%, 104, 110% and 942.
The matching figures for `CC(=O)N[C@H]1CSSC[C@@H](C(N)=O)NC(=O)[C@H](Cc2c[nH]c3ccccc23)NC(=O)[C@H](CCCNC(=N)N)NC(=O)[C@@H](Cc2ccccc2)NC(=O)[C@H](CCCNC(N)=O)NC(=O)CNC1=O` [CTX-1630, cyclo(Cys-Gly-Cit-D-Phe-Arg-Trp-Cys)] (Ac-CG[Cit][dF]RWC-NH2; disulfide 1-7 (inferred)): 35%, 28, 102% and 1816.
For `CC(=O)N[C@@H](CCCNC(=N)N)C(=O)N[C@H]1CSSC[C@@H](C(N)=O)NC(=O)[C@H](Cc2ccccc2)NC(=O)[C@H](CCCNC(=N)N)NC(=O)[C@@H](Cc2ccccc2)NC(=O)[C@H](Cc2ccccn2)NC(=O)C(C)(C)NC1=O` [CTX-1604, Arg-cyclo(Cys-Aib-Pal(2′)-D-Phe-Arg-Phe-Cys)] (Ac-RC[Aib][2Pal][dF]RFC-NH2; disulfide 2-8 (inferred)) the same measures were 12%, 0.11, 96% and 3.66.
For the compound `N=C(N)NCCC[C@@H]1NC(=O)[C@@H](Cc2ccccc2)NC(=O)[C@H](Cc2c[nH]cn2)NC(=O)CNC(=O)CSC[C@@H](C(N)=O)NC(=O)[C@H](Cc2c[nH]c3ccccc23)NC1=O` [CTX-1644, Thioether-cyclo(Gly-His-D-Phe-Arg-Trp-Cys)] ({CH2CO}-GH[dF]RWC-NH2; thioether N-6), at human MC3R, the Emax is 107% and the “MC4R selectivity vs MC3R” value is listed as 53. For the same compound, on human MC4R, the Emax is 111% and the EC50 came to 2.3 nM. The “MC4R selectivity vs MC1R” value on human MC1R turned out to be 4.84.
In the case of `CC1(C)NC(=O)CSC[C@@H](C(N)=O)NC(=O)[C@H](Cc2c[nH]c3ccccc23)NC(=O)[C@H](CCCNC(=N)N)NC(=O)[C@@H](Cc2ccccc2)NC(=O)[C@H](CCCNC(=N)N)NC1=O` [CTX-1648, Thioether-cyclo(Aib-Arg-D-Phe-Arg-Trp-Cys)] ({CH2CO}-[Aib]R[dF]RWC-NH2; thioether N-6), on human MC3R, the Emax amounted to 91%, the EC50 amounted to 72 nM and the “MC4R selectivity vs MC3R” value is on record as 63. Besides, the Emax at human MC4R turned out to be 101%. In addition, the “MC4R selectivity vs MC1R” value at human MC1R was determined as 13.
As for `CC(=O)N[C@@H](CCCNC(=N)N)C(=O)N[C@H]1CSSC[C@@H](C(N)=O)NC(=O)[C@H](Cc2ccccc2)NC(=O)[C@H](CCCNC(=N)N)NC(=O)[C@@H](Cc2ccccc2)NC(=O)[C@H](CCCN)NC(=O)C(C)(C)NC1=O` [CTX-1602, Arg-cyclo(Cys-Aib-Orn-D-Phe-Arg-Phe-Cys)] (Ac-RC[Aib][Orn][dF]RFC-NH2; disulfide 2-8), on human MC3R, the Emax came to 80% and the “MC4R selectivity vs MC3R” value is reported as 3.44. Besides, the Emax on human MC4R was 97%. The “MC4R selectivity vs MC1R” value on human MC1R amounted to 3.65.
Consider `CCCC[C@H](NC(=O)[C@H](CCCNC(=N)N)NC(C)=O)C(=O)N[C@H]1CSSC[C@@H](C(N)=O)NC(=O)[C@H](Cc2ccccc2)NC(=O)[C@H](CCCNC(=N)N)NC(=O)[C@@H](Cc2ccc(OC)cc2)NC(=O)[C@H](CCCNC(=N)N)NC1=O` [CTX-1624, Arg-Nle-cyclo(Cys-Arg-D-Tyr(4-OMe)-Arg-Phe-Cys)] (Ac-R[Nle]CR[dY](Me)RFC-NH2; disulfide 3-8 (inferred)), for which, on human MC3R, the Emax worked out at 66% and the “MC4R selectivity vs MC3R” value is recorded as 0.47. On human MC4R, the Emax was 83% and the 50% effective concentration (EC50) turned out to be 12 nM. Also, the “MC4R selectivity vs MC1R” value on human MC1R was found to be 0.15.
For `CCCC[C@H](NC(=O)[C@H](CCCNC(=N)N)NC(C)=O)C(=O)N[C@H]1CSSC[C@@H](C(N)=O)NC(=O)[C@H](Cc2c[nH]c3ccccc23)NC(=O)[C@H](CCCNC(=N)N)NC(=O)[C@@H](Cc2ccccc2)NC(=O)[C@H](Cc2ccccn2)NC1=O` [CTX-1619, Arg-Nle-cyclo(Cys-Pal(2′)-D-Phe-Arg-Trp-Cys)] (Ac-R[Nle]C[2Pal][dF]RWC-NH2; disulfide 3-8 (inferred)) the same measures were 84%, 13, 99%, 2.6 nM and 86.
Regarding `CC(=O)N[C@@H](CCCNC(=N)N)C(=O)N[C@H]1CSSC[C@@H](C(N)=O)NC(=O)[C@@H](Cc2c[nH]c3ccccc23)NC(=O)[C@H](CCCNC(=N)N)NC(=O)[C@@H](Cc2ccccc2)NC(=O)[C@H](CCCNC(N)=O)NC(=O)C(C)(C)NC1=O` [CTX-1290, Arg-cyclo(Cys-Aib-Cit-D-Phe-Arg-D-Trp-Cys)] (Ac-RC[Aib][Cit][dF]R[dW]C-NH2; disulfide 2-8), at human MC3R, the Emax was found to be 20%, the EC50 is 1040 nM and the “MC4R selectivity vs MC3R” value amounted to 9.23. For the same compound, the Emax on human MC4R worked out at 88%. Also, at human MC1R, the “MC4R selectivity vs MC1R” value is listed as 10.
As for `CC(=O)N[C@@H](CCCNC(=N)N)C(=O)N[C@H]1CSSC[C@@H](C(N)=O)NC(=O)[C@H](Cc2c[nH]c3ccccc23)NC(=O)[C@H](CCCNC(=N)N)NC(=O)[C@@](C)(Cc2ccccc2)NC(=O)[C@H](CCCNC(=N)N)NC(=O)[C@@H](C)NC1=O` [CTX-1278] (Ac-RC[dA]R[d(αMeF)]RWC-NH2; disulfide 2-8 (inferred)), on human MC3R, the Emax is 86% and the “MC4R selectivity vs MC3R” value came to 12. Moreover, on human MC4R, the Emax was 105%. The “MC4R selectivity vs MC1R” value at human MC1R came to 1.13.
For `CC(=O)N[C@H]1CSSC[C@@H](C(N)=O)NC(=O)[C@H](Cc2ccccc2)NC(=O)[C@H](CCCNC(=N)N)NC(=O)[C@@H](Cc2ccccc2)NC(=O)[C@H](CCCNC(N)=O)NC(=O)C(C)(C)NC1=O` [CTX-1636, cyclo(Cys-Aib-Cit-D-Phe-Arg-Phe-Cys)] (Ac-C[Aib][Cit][dF]RFC-NH2; disulfide 1-7 (inferred)) the same measures were 44%, 9.44, 102% and over 12.

One may read the EC50 as the concentration needed to bring the measured effect to its halfway point.
